According to article PMC9501280, “Anti-Inflammatory Activity of Soluble Epoxide Hydrolase Inhibitors Based on Selenoureas Bearing an Adamantane Moiety” (International Journal of Molecular Sciences, 2022):
“Also recorded” adds a separate entry of the source. Like-named read-outs stand apart in the source and are kept apart here.

How the values were obtained:
human recombinant sEH = target: T1, human recombinant sEH (Homo sapiens, UniProt P34913); test: Human sEH inhibition, kinetic fluorescent assay; assay type: biochemical
T1 sequence (P34913 1-555): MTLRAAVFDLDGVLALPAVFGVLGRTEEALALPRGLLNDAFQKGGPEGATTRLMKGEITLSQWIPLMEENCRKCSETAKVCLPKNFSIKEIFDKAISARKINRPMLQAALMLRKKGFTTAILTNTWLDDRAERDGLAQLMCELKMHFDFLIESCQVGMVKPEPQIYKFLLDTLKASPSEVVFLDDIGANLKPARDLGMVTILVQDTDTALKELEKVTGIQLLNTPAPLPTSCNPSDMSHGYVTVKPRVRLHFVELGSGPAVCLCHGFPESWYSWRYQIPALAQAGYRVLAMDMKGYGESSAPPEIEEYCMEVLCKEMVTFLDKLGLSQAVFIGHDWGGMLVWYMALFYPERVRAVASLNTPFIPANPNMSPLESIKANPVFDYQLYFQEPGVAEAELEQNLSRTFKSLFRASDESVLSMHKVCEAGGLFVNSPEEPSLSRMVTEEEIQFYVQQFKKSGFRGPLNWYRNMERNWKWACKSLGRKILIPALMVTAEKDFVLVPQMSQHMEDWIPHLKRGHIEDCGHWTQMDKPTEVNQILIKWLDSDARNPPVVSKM

[1] = Ferrous ions (Fe2+) chelating activity (FIC); conditions: compound 5 mM; EDTA taken as 100%
Description: One of the most important antioxidant properties of compounds is the ability to chelate transition metal ions, including iron, which participate in the Fenton reaction, forming an active HO^• and H2O2 and contributing to the development of radical processes, respectively, leading to oxidative damage to cells. In this regard, potential antioxidants can act not only as scavengers of active radicals but also have chelating properties. Therefore, the Ferrous Ions Chelating Activity (FIC) of compounds 4a–g and 5a were evaluated in this work by their ability to bind iron(II), which is expressed in a decreased amount of the colored ferrozine complex.
The chelation of ferrous ions by compounds was estimated by the method of Dinis et al. Briefly, 10 μL of 2 mM FeCl2 was added to 20 μL of the investigated compound (5 mM) and 150 μL of EtOH. The reaction was initiated by the addition of 0.04 mL of 5 mM ferrozine solution. The mixture was left to stand at 35 °C for 10 min. The absorbance of the solution was thereafter measured at 562 nm. The percentage inhibition of ferrozine–Fe^2+ complex formation was calculated as […], where A0 is the absorbance of the control, and As is the absorbance of the compound/standard. Na2EDTA was used as the positive control.

[2] = Cupric reducing antioxidant capacity (CUPRAC); conditions: Trolox equivalents (Trolox = 1); compound 0.5 mM, 30 min
Description: (§1) To confirm the SET mechanism, the reducing activity of the compounds was studied using tests CUPRAC (Cupric-Reducing Antioxidant Capacity) and FRAP (Ferric ion-Reducing Antioxidant Power). Unlike the DPPH and ABTS tests, these methods are based only on the ability of substances to act as electron donors. It should be noted that the CUPRAC test has several advantages: the manifestation of activity at a pH close to the physiological value and a favorable redox potential; the method is applicable to both lipophilic and hydrophilic antioxidants. The antioxidant potential of the studied derivatives 4a–g and 5a is estimated in equivalents of the water-soluble analog of vitamin E—Trolox (TEAC—Trolox Equivalent Antioxidant Capacity), the activity of which is taken as the unit ([…] = 1, […] = 1).
Neocuproine (2,9-dimethyl-1,10-phenanthroline) and Trolox were used with no further purification. The method proposed by Apak et al. was used with slight modifications. For these measurements, 0.05 mL of CuCl2 solution (0.01 M), 0.05 mL of MeOH neocuproine solution (7.5 mM) and 0.05 mL of ammonium acetate buffer solution (1 M) were added to a test tube, followed by mixing with the 0.05 mL tested compounds (0.5 mM). The mixtures were kept at room temperature for 30 min. The absorbance was measured at 450 nm against a reagent blank. The results were presented in Trolox equivalents (Trolox equivalent antioxidant capacity, TEAC) obtained using absorbance data, and the linear calibration curve was plotted as the absorbance vs. Trolox concentration.

[3] = Ferric-reducing antioxidant power (FRAP); conditions: Trolox equivalents (Trolox = 1)
Description: as §1
The sample solution (0.1 mL) was mixed with 0.1 mL phosphate buffer (0.2 M, pH 6.6) and 0.1 mL potassium ferricyanide (1%). For each test compound, different concentrations of EtOH were used (5, 10, 25, 50, 100, 200 and 250 μM). The resulting mixture was incubated at 50 °C for 20 min. After the incubation period, 0.1 mL trichloroacetic acid (10%), 0.5 mL deionized water and 0.1 mL ferric chloride (0.1%) were added to the mixture. The sample absorbance was read at 700 nm with a 96-cell microplate spectrophotometer. The reduction of Fe (III) to Fe (II) could be expressed as % inhibition or the equivalent of a standard compound (e.g., Trolox).

[4] = DPPH radical scavenging activity; conditions: compound solution 0.2 mM in MeOH mixed 1:1 with 0.2 mM DPPH, 40 min, 20 °C
Description: The free radical scavenging activity was evaluated using the stable radical 2,2-diphenyl-1-picrylhydrazyl (DPPH), according to the method described by Brand-Williams with a slight modification. Solutions of the compounds in MeOH were studied at a concentration of 0.2 mM. The stock DPPH solution contained 0.2 mM of radical in MeOH. An amount of 0.1 mL of the test compound solution was added to 0.1 mL of DPPH solution (0.2 mM) in each cell so that the initial DPPH concentration in the cells was 0.1 mM. The microplate was placed in a spectrophotometer, and the decrease in the absorbance values of the DPPH solution for 40 min at 20 °C was measured at λmax = 517 nm. The results were expressed as scavenging activity, calculated as follows: scavenging activity, % = [(A0 − A1)/A0] × 100, where A0 is the optical density of the control solution DPPH, and A1 is the optical density of the reaction mixture solution.

[5] = kinetic fluorescent assay, means of three separate experiments, read-out: Human sEH IC50

| SMILES | melting point [°C] | increase in the inhibitory activity (human recombinant sEH; 4b versus 4a, one methylene group between adamantyl and selenourea) [fold] | IC50 (human recombinant sEH; [5]) [nM] | % Inhibition FIC [1] | TEACCUPRAC [2] | TEACFRAP [3] | % Inhibition DPPH• [4] [%] | IC50 (human recombinant sEH; human sEH, read-out: IC50 (sEH)) [nM] |
| --- | --- | --- | --- | --- | --- | --- | --- | --- |
| [Se]=C(NCC12CC3CC(CC(C3)C1)C2)Nc1ccccc1 [4b, 1-[(Adamantan-1-yl)methyl]-3-phenylselenourea] | 197 to 198 | 3.3 | 131 | 14.15 ± 2.27% | 3.04 ± 0.11 | 1.14 ± 0.03 | 70.75 ± 1.10 |  |
| [Se]=C(NCCC12CC3CC(CC(C3)C1)C2)Nc1ccccc1 [4d, 1-[2-(Adamantan-1-yl)ethyl]-3-phenylselenourea] | 141 to 142 |  | 49.1 | not established; also recorded: non active | 3.29 ± 0.12 | 1.32 ± 0.01 | 70.90 ± 2.13 |  |
| [Se]=C(NCc1ccccc1)NC12CC3CC(CC(C3)C1)C2 [5a, 1-(Adamantan-1-yl)-3-benzylselenourea] | 157 to 158 |  | 211 | not established; also recorded: non active | 1.62 ± 0.4 | 1.19 ± 0.04 | 59.45 ± 0.09 |  |
| [Se]=C(Nc1ccccc1)NC1C2CC3CC(C2)CC1C3 (stereo not shown) [4g, 1-(Adamantan-2-yl)-3-phenylselenourea] | 187 to 188 |  | 104 | 19.74 ± 1.57% | 2.48 ± 0.16 | 1.39 ± 0.03 | 71.82 ± 1.10 |  |
| [Se]=C(Nc1ccccc1)NC12CC3CC(CC(C3)C1)C2 [4a, 1-(Adamantan-1-yl)-3-phenylselenourea] | 202 to 203 |  | 436 | 13.6 ± 0.04% | 1.07 ± 0.11 | 0.93 ± 0.06 | 44.89 ± 0.04 |  |
| CC12CC3CC(C)(C1)CC(NC(=[Se])Nc1ccccc1)(C3)C2 [4f, 1-(3,5-Dimethyladamantan-1-yl)-3-phenylselenourea] | 142 to 143 |  | 256 | 26.20 ± 3.20% | 0.22± 0.01 | 0.57 ± 0.04 | 58.35 ± 0.92 |  |
| CC(NC(=[Se])Nc1ccccc1)C12CC3CC(CC(C3)C1)C2 (stereo not shown) [4c, 1-[1-(Adamantan-1-yl)ethyl]-3-phenylselenourea] |  |  | 1210 | 21.90 ± 1.88% | 3.39 ± 0.11 | 1.81 ± 0.08 | 68.81 ± 1.69 | 1200 |
| [Se]=C(Nc1ccccc1)Nc1ccc(C23CC4CC(CC(C4)C2)C3)cc1 [4e, 1-[4-(Adamantan-1-yl)phenyl]-3-phenylselenourea] | 163 to 164 |  | 55.4 | not established; also recorded: non active | 0.99 ± 0.05 | 1.13 ± 0.14 | 66.15 ± 0.56 |  |
